# Patent publication US6410054B1, “Immediate release eplerenone compositions” (G. D. Searle & Co., priority 1998, dated 2002)
# Tests used:
# Assay type in all cases: in vivo, humans
# [1] = ADME study of [14C]eplerenone oral solution: excretion in urine, feces, breath; settings: 100 mg [14C]eplerenone oral solution, mean
# Procedure: An open-label, single dose study was employed to evaluate the absorption, distribution, metabolism and elimination profile of a single 100 mg dose of an oral solution of eplerenone.
# The study employed eight healthy male humans. Each subject received a single 100 mg oral dose of a solution of [^14C]eplerenone (specific activity 0.75 μCi/mg). Plasma, saliva, breath, urine and fecal samples were collected at predetermined intervals and analyzed for sample radioactivity and the concentration of eplerenone and its open lactone ring form. Safety was determined on the basis of laboratory tests, vital signs, and the occurrence and types of adverse events.
# The subjects, who underwent an overnight food fast prior to administration of the dose, received at 0800 hours a single 100 mg oral dose of an aqueous oral solution of radiolabeled eplerenone reconstituted in 80 mL of an apple juice/hydroxypropyl-β-cyclodextrin mixture. The subjects swallowed about 200 mL of water one, two and three hours post dosing.
# Blood samples were collected at −0.5 (predose), 0.5, 1, 1.5, 2, 2.5, 3, 4, 6, 8, 12, 16, 24, 36, 48, 72 and 96 hours post dose. […] Individual fecal samples were collected beginning immediately after dosing and continuing through 0800 hours on day 8. In addition, one predose fecal sample was provided. Saliva samples were taken at 0.5 hour predose and at 0.5, 1, 2, 4, 6, 12, and 24 hours postdose. Breath samples were taken at 0.5 hour predose and at 1, 2, 3, 4, 6, 8, 12, 24, 36, 48 and 72 hours postdose.
# [2] = Effect of food study: plasma pharmacokinetics fasted vs high-fat breakfast; settings: for Plasma Concentration: 100 mg eplerenone capsule
# Procedure: An open-label randomized, cross-over study was employed to evaluate the pharmacokinetic profiles of eplerenone under fasted and fed conditions, and the safety and tolerability of eplerenone. Safety was assessed based on adverse events, vital signs and clinical laboratory tests. Twelve healthy male subjects were randomized to receive a single 100 mg dose of eplerenone on days 1 and 8 under (i) fasted conditions, or (ii) immediately following a high-fat breakfast. The subjects were orally administered (dosed) a single 100 mg dose of eplerenone in the form of the capsule described in Example 7, together with approximately 200 to 240 mL of water at 0800 hours on days 1 and 8. Subjects randomized to receive a high-fat breakfast were to completely ingest the meal within 20 minutes prior to dosing. The high-fat meal contained approximately 33 g protein, 75 g fat, 58 g carbohydrates and 1000 calories. […] All adverse events were mild in severity.
# [3] = Multiple dose study: plasma pharmacokinetics and urinary excretion
# Procedure: Multiple oral dose tolerability and the pharmacokinetics of several dosages of eplerenone were evaluated in a double-blind, randomized, placebo-controlled, rising oral dose, sequential panel study of 40 healthy male subjects (five groups of eight subjects). The study medication was administered in […] sequential dose panels, with each panel including eplerenone, spironolactone and placebo. […] The 100 mg and 200 mg dose capsules corresponded to those described in Examples 7 and 8, respectively. Following a 48-hour interval, the study drug was administered once a day for 11 days. Antialdosterone activity was determined following a fludrocortisone challenge on Days 12-13.
smiles,measurement,setting,value
COC(=O)C1CC2=CC(=O)CCC2(C)C23OC2CC2(C)C(CCC2(O)CCC(=O)O)C13 (stereo not drawn) [Open Ring Lactone],dose excreted in feces as the named form,[1],2.46%
same,dose excreted in urine as the named form,[1],4.98%
same,effect of high-fat meal on AUC0-96,"[2]; 100 mg capsule, fed vs fasted",minimal or no measurable effect
same,effect of high-fat meal on Cmax,"[2]; 100 mg capsule, fed vs fasted",reduction
same,effect of high-fat meal on Tmax,"[2]; 100 mg capsule, fed vs fasted",increase
same,effect of high-fat meal on T½,"[2]; 100 mg capsule, fed vs fasted",minimal or no measurable effect
same,Plasma Concentration,"[2]; Fasted Conditions, 0.5 hours after dosing",69.163 ng/mL
same,Plasma Concentration,"[2]; Fasted Conditions, 1.0 hours after dosing",91.208 ng/mL
same,Plasma Concentration,"[2]; Fasted Conditions, 2.0 hours after dosing",70.600 ng/mL
same,Plasma Concentration,"[2]; Fasted Conditions, 3.0 hours after dosing",58.833 ng/mL
same,Plasma Concentration,"[2]; Fasted Conditions, 4.0 hours after dosing",45.042 ng/mL
same,Plasma Concentration,"[2]; Fasted Conditions, 6.0 hours after dosing",31.773 ng/mL
same,Plasma Concentration,"[2]; Fasted Conditions, 8.0 hours after dosing",18.708 ng/mL
same,Plasma Concentration,"[2]; Fasted Conditions, 28.0 hours after dosing",0 ng/mL
same,Plasma Concentration,"[2]; Fasted Conditions, 48.0 hours after dosing",0 ng/mL
same,Plasma Concentration,"[2]; Fasted Conditions, 72.0 hours after dosing",0 ng/mL
same,Plasma Concentration,"[2]; Fasted Conditions, −0.5 hours after dosing",0 ng/mL
same,Plasma Concentration,"[2]; High Fat Breakfast, 0.5 hours after dosing",2.300 ng/mL
same,Plasma Concentration,"[2]; High Fat Breakfast, 1.0 hours after dosing",17.392 ng/mL
same,Plasma Concentration,"[2]; High Fat Breakfast, 2.0 hours after dosing",36.964 ng/mL
same,Plasma Concentration,"[2]; High Fat Breakfast, 3.0 hours after dosing",56.742 ng/mL
same,Plasma Concentration,"[2]; High Fat Breakfast, 4.0 hours after dosing",66.817 ng/mL
same,Plasma Concentration,"[2]; High Fat Breakfast, 6.0 hours after dosing",51.675 ng/mL
same,Plasma Concentration,"[2]; High Fat Breakfast, 8.0 hours after dosing",30.950 ng/mL
same,Plasma Concentration,"[2]; High Fat Breakfast, 28.0 hours after dosing",0 ng/mL
same,Plasma Concentration,"[2]; High Fat Breakfast, 48.0 hours after dosing",0 ng/mL
same,Plasma Concentration,"[2]; High Fat Breakfast, 72.0 hours after dosing",0 ng/mL
same,Plasma Concentration,"[2]; High Fat Breakfast, −0.5 hours after dosing",0 ng/mL
same,dose proportionality of plasma concentrations and dose-adjusted AUC,"[3]; 100 mg to 1000 mg, single or multiple doses",consistent with dose proportionality
same,accumulation,[3]; once a day for 11 days,no significant or dose-related accumulation
